Reference: patent publication US11518760B2 (Liverpool School of Tropical Medicine, priority 2017, dated 2022)

Tested on: C6/36 Aedes albopictus cell line infected with Wolbachia pipientis (Wolbachia strain wAlbB)
Test: In vitro insect cell line assay (anti-Wolbachia screen, SYTO 11 high content imaging)
Type: cell-based
Conditions: 168 h; C6/36 Aedes albopictus cells infected with Wolbachia pipientis wAlbB, 7 days incubation, SYTO 11 imaging; read-out: In vitro anti-Wolbachia activity
Outline: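 SYTO 11 staining (15 min), high-content imaging and texture analysis were the read-out on day 7. Before that, C6/36 mosquito cells carrying Wolbachia strain wAlbB were incubated at 26 °C with test compound at 5 μM final, alongside DMSO-only control wells.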

First: CC(C)Nc1nc(NCc2ccc(C(F)(F)F)cc2)c2cccnc2n1 [Example 129, N^2-isopropyl-N^4-(4-(trifluoromethyl)benzyl)pyrido[2,3-d]pyrimidine-2,4-diamine]
Second: CC(C)Nc1nc(NCc2ccc(C(F)(F)F)cc2)c2sccc2n1 [Example 109, N^2-isopropyl-N^4-(4-(trifluoromethyl)benzyl)thieno[3,2-d]pyrimidine-2,4-diamine]
The EC50 of the first is lower: 100 to 1000 nM for the first, 1000 to 100000 nM for the second. The first is the more potent here.

Compared with `CC(C)Nc1nc(NCc2cccnc2C(F)(F)F)c2ncccc2n1` [Example 152, N^2-isopropyl-N^4-((2-(trifluoromethyl)pyridin-3-yl)methyl)pyrido[3,2-d]pyrimidine-2,4-diamine], `Cc1nc(NCc2cccnc2C(F)(F)F)c2cccnc2n1` [Example 177, 2-methyl-N-((2-(trifluoromethyl)pyridin-3-yl)methyl)pyrido[2,3-d]pyrimidin-4-amine] is higher in EC50: 100 to 1000 nM for the first, 1000 to 100000 nM for the second.

First: O=C(Nc1ccc(F)cc1)Nc1nc(NCc2cccnc2C(F)(F)F)c2cccnc2n1 [Example 204, 1-(4-fluorophenyl)-3-(4-(((2-(trifluoromethyl)pyridin-3-yl)methyl)amino)pyrido[2,3-d]pyrimidin-2-yl)urea]
Second: FC(F)(F)c1ncccc1CNc1nc(NC2CC2)nc2ncccc12 [Example 159, N^2-cyclopropyl-N^4-((2-(trifluoromethyl)pyridin-3-yl)methyl)pyrido[2,3-d]pyrimidine-2,4-diamine]
The EC50 of the first is higher: 10 to 100 nM for the first, 1 to 10 nM for the second.

First: FC(F)(F)c1cccc(CNc2ncnc3ccsc23)c1 [Example 81]
Second: FC(F)(F)c1ccccc1CNc1ncnc2ccsc12 [Example 23, N-(2-(trifluoromethyl)benzyl)thieno[3,2-d]pyrimidin-4-amine]
The EC50 of the first is higher: 1000 to 100000 nM for the first, 10 to 100 nM for the second.

Compared with `Fc1ccc(CNc2ncnc3ccccc23)c(C(F)(F)F)c1` [Example 72, N-(4-fluoro-2-(trifluoromethyl)benzyl)quinazolin-4-amine], `Oc1nc(NCc2ccccc2C(F)(F)F)c2cccnc2n1` [Example 157, 4-((2-(trifluoromethyl)benzyl)amino)pyrido[2,3-d]pyrimidin-2-ol] is higher in EC50: 10 to 100 nM for the first, 1000 to 100000 nM for the second. The first is the more potent here.

First: CC1CN(c2nc(NCc3ccccc3C(F)(F)F)c3cccnc3n2)CCO1 (stereo not drawn) [Example 248, 2-(2-methylmorpholino)-N-(2-(trifluoromethyl)benzyl)pyrido[2,3-d]pyrimidin-4-amine]
Second: FC(F)(F)c1ccccc1CNc1nc(N2CCC(C(F)(F)F)C2)nc2ncccc12 (stereo not drawn) [Example 266, N-(2-(trifluoromethyl)benzyl)-2-(3-(trifluoromethyl)pyrrolidin-1-yl)pyrido[2,3-d]pyrimidin-4-amine]
The EC50 of the first is lower: 0.01 to 1 nM for the first, 1 to 10 nM for the second. The first is the more potent here.

First: C[C@H]1COCCN1c1nc(N2CCC2c2cccnc2C(F)(F)F)c2cccnc2n1 (stereo partly drawn) [Example 289, (3S)-3-methyl-4-(4-(2-(2-(trifluoromethyl)pyridin-3-yl)azetidin-1-yl)pyrido[2,3-d]pyrimidin-2-yl)morpholine]
Second: FC(F)(F)c1ccccc1C1CCN1c1nc(N2CCC(Cl)CC2)nc2ncccc12 (stereo not drawn) [Example 212, 2-(4-chloropiperidin-1-yl)-4-(2-(2-(trifluoromethyl)phenyl)azetidin-1-yl)pyrido[2,3-d]pyrimidine]
The EC50 of the first is lower: 0.01 to 1 nM for the first, 100 to 1000 nM for the second. The first is the more potent here.

Compared with `CN1CC(Nc2nc(NCc3ccccc3C(F)(F)F)c3cccnc3n2)C1` [Example 142, N^2-(1-methylazetidin-3-yl)-N^4-(2-(trifluoromethyl)benzyl)pyrido[2,3-d]pyrimidine-2,4-diamine], `CS(=O)(=O)C1CCN(c2nc(NCc3ccccc3C(F)(F)F)c3cccnc3n2)CC1` [Example 243, 2-(4-(methylsulfonyl)piperidin-1-yl)-N-(2-(trifluoromethyl)benzyl)pyrido[2,3-d]pyrimidin-4-amine] is lower in EC50: 1000 to 100000 nM for the first, 100 to 1000 nM for the second. The second is the more potent here.

First: CC(C)Nc1nc(NCc2ccc(F)cc2)c2ccccc2n1 [Example 134, N^4-(4-fluorobenzyl)-N^2-isopropylquinazoline-2,4-diamine]
Second: CC(C)Nc1nc(NCc2ccccc2S(C)(=O)=O)c2cccnc2n1 [Example 127, N^2-isopropyl-N^4-(2-(methylsulfonyl)benzyl)pyrido[2,3-d]pyrimidine-2,4-diamine]
The EC50 of the first is higher: 1000 to 100000 nM for the first, 100 to 1000 nM for the second.

`CC(Nc1ncnc2cc(C#N)sc12)c1ccccc1C(F)(F)F` (stereo not drawn) [Example 102, 4-((1-(2-(trifluoromethyl)phenyl)ethyl)amino)thieno[3,2-d]pyrimidine-6-carbonitrile] and `CC(Nc1ncnc2cc(I)sc12)c1ccccc1C(F)(F)F` (stereo not drawn) [Example 96, 6-iodo-N-(1-(2-(trifluoromethyl)phenyl)ethyl)thieno[3,2-d]pyrimidin-4-amine] fall in the same range of EC50: 1000 to 100000 nM for the first, 1000 to 100000 nM for the second.

`FC1(F)CN(c2nc(NCc3cccnc3C(F)(F)F)c3cccnc3n2)CC(F)(F)O1` [Example 295, 2-(2,2,6,6-tetrafluoromorpholino)-N-((2-(trifluoromethyl)pyridin-3-yl)methyl)pyrido[2,3-d]pyrimidin-4-amine] and `FC1(F)CN(c2nc(NCc3cccnc3C(F)(F)F)c3cccnc3n2)C1` [Example 201, 2-(3,3-difluoroazetidin-1-yl)-N-((2-(trifluoromethyl)pyridin-3-yl)methyl)pyrido[2,3-d]pyrimidin-4-amine] fall in the same range of EC50: 10 to 100 nM for the first, 10 to 100 nM for the second.

First: N#CC1CCN(c2nc(NCc3cccnc3C(F)(F)F)c3cccnc3n2)CC1 [Example 234, 1-(4-(((2-(trifluoromethyl)pyridin-3-yl)methyl)amino)pyrido[2,3-d]pyrimidin-2-yl)piperidine-4-carbonitrile]
Second: CC1CCN(c2nc(NCc3cccnc3C(F)(F)F)c3cccnc3n2)CC1 [Example 312, 2-(4-methylpiperidin-1-yl)-N-((2-(trifluoromethyl)pyridin-3-yl)methyl)pyrido[2,3-d]pyrimidin-4-amine]
The EC50 of the first is higher: 1 to 10 nM for the first, 0.01 to 1 nM for the second.

First: CC1(C#N)CCN(c2nc(NCc3ccccc3C(F)(F)F)c3cccnc3n2)CC1 [Example 261, (2-(trifluoromethyl)pyridin-3-yl)metha 4-methyl-1-(4-((2-(trifluoromethyl)benzyl)amino)pyrido[2,3-d]pyrimidin-2-yl)piperidine-4-carbonitrile]
Second: CC1(O)CN(c2nc(NCc3cccnc3C(F)(F)F)c3cccnc3n2)C1 [Example 171, 3-methyl-1-(4-(((2-(trifluoromethyl)pyridin-3-yl)methyl)amino)pyrido[2,3-d]pyrimidin-2-yl)azetidin-3-ol]
The EC50 of the first is lower: less than 0.01 nM for the first, 100 to 1000 nM for the second.

`Cc1nc(N(C)Cc2ccccc2C(F)(F)F)c2sccc2n1` [Example 63, N,2-dimethyl-N-(2-(trifluoromethyl)benzyl)thieno[3,2-d]pyrimidin-4-amine] and `Cc1nc(NCc2ccccc2C(F)(F)F)c2sccc2n1` [Example 55, 2-methyl-N-(2-(trifluoromethyl)benzyl)thieno[3,2-d]pyrimidin-4-amine] fall in the same range of EC50: 10 to 100 nM for the first, 10 to 100 nM for the second.

First: Clc1nc(NC2(c3ccccc3Cl)CC2)c2sccc2n1 [Example 47, 2-chloro-N-(1-(2-chlorophenyl)cyclopropyl)thieno[3,2-d]pyrimidine-4-diamine]
Second: Clc1nc(NCc2ccccc2Cl)c2sccc2n1 [Example 21, 2-chloro-N-(2-chlorobenzyl)thieno[3,2-d]pyrimidin-4-amine]
The EC50 of the first is higher: 1000 to 100000 nM for the first, 10 to 100 nM for the second. The second is the more potent here.

First: Cc1nc(N(C)C(C)c2ccccc2C(F)(F)F)c2sc(C=O)cc2n1 (stereo not drawn) [Example 77]
Second: Cc1nc(N(C)C(C)c2ccccc2C(F)(F)F)c2sc(C(C)(C)O)cc2n1 (stereo not drawn) [Example 70, 2-(2-methyl-4-(methyl(1-(2-(trifluoromethyl)phenyl)ethyl)amino)thieno[3,2-d]pyrimidin-6-yl)propan-2-ol]
The EC50 of the first is lower: 100 to 1000 nM for the first, 1000 to 100000 nM for the second.

First: FC(F)(F)c1ncccc1CNc1nc(CN2CCC(Cl)CC2)nc2ncccc12 [Example 227, 2-((4-chloropiperidin-1-yl)methyl)-N-((2-(trifluoromethyl)pyridin-3-yl)methyl)pyrido[2,3-d]pyrimidin-4-amine]
Second: FC(F)(F)c1ncccc1CNc1nc(N2CCCC2C(F)(F)F)nc2ncccc12 (stereo not drawn) [Example 264, N-((2-(trifluoromethyl)pyridin-3-yl)methyl)-2-(2-(trifluoromethyl)pyrrolidin-1-yl)pyrido[2,3-d]pyrimidin-4-amine]
The EC50 of the first is higher: 100 to 1000 nM for the first, less than 0.01 nM for the second. The second is the more potent here.

`O=C(Nc1ncnc2ccsc12)c1ccccc1C(F)(F)F` [Example 37, N-(thieno[3,2-d]pyrimidin-4-yl)-2-(trifluoromethyl)benzamide] and `FC(F)(F)c1cccc2c1CN(c1ncnc3ccsc13)C2` [Example 83] fall in the same range of EC50: 1000 to 100000 nM for the first, 1000 to 100000 nM for the second.

First: CC(C)Nc1nc(N2CCCCC2c2ccccc2C(F)(F)F)c2cccnc2n1 (stereo not drawn) [Example 185, N-isopropyl-4-(2-(2-(trifluoromethyl)phenyl)piperidin-1-yl)pyrido[2,3-d]pyrimidin-2-amine]
Second: CC(C)Nc1nc(NCCc2ccccc2C(F)(F)F)c2sccc2n1 [Example 45, N^2-isopropyl-N^4-(2-(trifluoromethyl)phenethyl)thieno(3,2-d]pyrimidine-2,4-diamine]
The EC50 of the first is higher: 1000 to 100000 nM for the first, 100 to 1000 nM for the second.

First: CC1(C)CN(c2nc(NCc3cccnc3C(F)(F)F)c3cccnc3n2)CCO1 [Example 239, 2-(2,2-dimethylmorpholino)-N-((2-(trifluororoethyl)pyridin-3-yl)methyl)pyrido[2,3-d]pyrimidin-4-amine]
Second: FC(F)(F)c1cnn(-c2nc(NCc3cccnc3C(F)(F)F)c3cccnc3n2)c1 [Example 203, 2-(4-(trifluoromethyl)-1H-pyrazol-1-yl)-N-((2-(trifluoromethyl)pyridin-3-yl)methyl)pyrido[2,3-d]pyrimidin-4-amine]
The EC50 of the first is lower: 0.01 to 1 nM for the first, 100 to 1000 nM for the second. The first is the more potent here.

For `Cc1csc2c(NC(C)c3ccccc3C(F)(F)F)ncnc12` (stereo not drawn) [Example 105, 7-methyl-N-(1-(2-(trifluoromethyl)phenyl)ethyl)thieno[3,2-d]pyrimidin-4-amine], the EC50 was 1000 to 100000 nM.

Same assay, conditions: C6/36, 168 h, read-out: In vitro anti-Wolbachia activity

`Cc1cc2ncnc(N(C)C(C)c3ccccc3C(F)(F)F)c2s1` (stereo not drawn) [Example 1] showed an EC50 of 1000 to 100000 nM.
